Measurements taken from patent US20240391954A1, “MC4R AGONIST PEPTIDES” (The Regents of the University of Michigan, priority 2021, published 2024).
Positions of bridges follow the written chain, without caps; N, C: chain ends. Non-standard residues stand in square brackets, D forms with d. Residues, ends and D or L forms follow the SMILES beside them. Cit = NC(=O)NCCC[C@H](N)C(=O)O; Nle = CCCC[C@H](N)C(=O)O; Orn = NCCC[C@H](N)C(=O)O; Aib = CC(C)(N)C(=O)O

Columns and labels:
Assay type in all cases: cell-based
[1] = biological target: T1, human MC1R (Homo sapiens, UniProt Q01726); assay: split-luciferase cAMP sensor assay, agonist mode, hMC1R; conditions: MC4R versus MC1R
T1 construct: expressed in transfected cells; host or cells: HEK-293 cells stably expressing hMC1R and the GScAMP22F cAMP sensor
Procedure, shortened: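 HEK-293 cells stably expressing hMC1R and the GScAMP22F split-luciferase cAMP sensor, preloaded 120 min at 37° C with D-luciferin in serum-free medium. Peptide responses were taken as peak luminescence over 2-13 min minus 2-min baseline, normalized to the α-MSH ECmax. EC50 was obtained from a four-parameter variable-slope fit.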

[2] = biological target: T2, human MC3R (Homo sapiens, UniProt P41968); assay: split-luciferase cAMP sensor assay, agonist mode (measurement window 1), hMC3R; conditions: for Emax: % maximal activation, read-out: MC3R cAMP % max activation; for Emax / EC50: agonist mode; for EC50: HEK-293 cells stably expressing hMC3R, read-out: MC3R cAMP EC50; for MC4R selectivity vs MC3R: MC4R versus MC3R
T2 construct: expressed in transfected cells; host or cells: HEK-293 cells stably expressing the GScAMP22F split-luciferase cAMP sensor (parent reporter line from Promega); MC3R clone generated in-house, G418 selection
Procedure, shortened: (§1)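 Live stable cell lines carrying receptor plus GloSensor cAMP22f split-luciferase, loaded with 4% D-luciferin in serum-free medium (~1% serum estimated during assay). Luminescence recorded during in-line peptide addition; direct agonist effect read in window 1, with 20 μM forskolin as normalization reference. EC50 from four-parameter sigmoid fit.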

[3] = biological target: T3, human MC4R (Homo sapiens, UniProt P32245); assay: split-luciferase cAMP sensor assay, agonist mode (measurement window 1), hMC4R; conditions: agonist mode; for Emax: % maximal activation, read-out: MC4R cAMP % max activation; for EC50: HEK-293 cells stably expressing hMC4R, read-out: MC4R cAMP EC50
T3 construct: host or cells: HEK-293 cells stably expressing the GScAMP22F split-luciferase cAMP sensor and hMC4R, G418 selection
Procedure, shortened: as §1

T3 sequence (P32245 whole entry): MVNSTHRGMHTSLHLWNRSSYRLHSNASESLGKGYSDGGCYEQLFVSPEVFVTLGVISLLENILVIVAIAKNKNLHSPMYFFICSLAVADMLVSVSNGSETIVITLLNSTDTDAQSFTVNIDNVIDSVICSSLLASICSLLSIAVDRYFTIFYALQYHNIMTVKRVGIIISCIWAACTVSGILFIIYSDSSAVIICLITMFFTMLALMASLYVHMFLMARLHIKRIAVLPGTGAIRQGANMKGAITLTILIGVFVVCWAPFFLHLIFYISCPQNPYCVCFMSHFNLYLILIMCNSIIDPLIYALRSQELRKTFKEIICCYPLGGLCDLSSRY
T1 sequence (Q01726 whole entry): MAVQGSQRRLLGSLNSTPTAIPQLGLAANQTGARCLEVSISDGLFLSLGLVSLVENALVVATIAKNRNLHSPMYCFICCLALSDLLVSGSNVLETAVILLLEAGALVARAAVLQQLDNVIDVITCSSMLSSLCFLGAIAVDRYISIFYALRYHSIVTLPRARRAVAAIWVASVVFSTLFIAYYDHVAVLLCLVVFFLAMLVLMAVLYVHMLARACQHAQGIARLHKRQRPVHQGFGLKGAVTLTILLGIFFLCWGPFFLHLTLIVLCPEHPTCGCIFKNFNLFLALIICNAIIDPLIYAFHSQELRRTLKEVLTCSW
T2 sequence (P41968 whole entry): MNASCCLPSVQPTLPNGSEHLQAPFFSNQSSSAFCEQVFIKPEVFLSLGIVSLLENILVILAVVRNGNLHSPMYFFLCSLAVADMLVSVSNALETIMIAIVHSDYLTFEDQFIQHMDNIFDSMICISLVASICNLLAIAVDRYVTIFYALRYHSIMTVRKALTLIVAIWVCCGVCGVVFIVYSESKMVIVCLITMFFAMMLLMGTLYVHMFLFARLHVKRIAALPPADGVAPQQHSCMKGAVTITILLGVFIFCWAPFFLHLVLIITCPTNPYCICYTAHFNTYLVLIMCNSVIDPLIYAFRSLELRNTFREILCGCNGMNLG

| SMILES | MC4R selectivity vs MC1R [1] | Emax [2] | EC50 [2] | MC4R selectivity vs MC3R [2] | Emax [3] | EC50 [3] |
| --- | --- | --- | --- | --- | --- | --- |
| N=C(N)NCCC[C@@H]1NC(=O)CNC(=O)CSC[C@@H](C(N)=O)NC(=O)[C@H](Cc2c[nH]c3ccccc23)NC(=O)[C@H](CCCNC(=N)N)NC(=O)[C@@H](Cc2ccccc2)NC1=O [CTX-1645, Thioether-cyclo(Gly-Arg-D-Phe-Arg-Trp-Cys)] ({CH2CO}-GR[dF]RWC-NH2; thioether N-6) | 9.04 | 97% | 68 nM | 42 | 110% | 1.6 nM |
| CCCC[C@H](NC(=O)[C@H](CCCNC(=N)N)NC(C)=O)C(=O)N[C@H]1CSSC[C@@H](C(N)=O)NC(=O)[C@H](Cc2ccccc2)NC(=O)[C@H](CCCNC(=N)N)NC(=O)[C@@H](Cc2ccccc2)NC(=O)[C@H](CCCNC(=N)N)NC1=O [CTX-1622, Arg-Nle-cyclo(Cys-Arg-D-Phe-Arg-Phe-Cys)] (Ac-R[Nle]CR[dF]RFC-NH2; disulfide 3-8 (inferred)) | 0.39 | 100% | 13 nM | 0.32 | 101% |  |
| N=C(N)NCCC[C@@H]1NC(=O)CNC(=O)CSC[C@@H](C(N)=O)NC(=O)[C@H](Cc2ccccc2)NC(=O)[C@H](CCCNC(=N)N)NC(=O)[C@@H](Cc2ccccc2)NC1=O [CTX-1654, Thioether-cyclo(Gly-Arg-D-Phe-Arg-Phe-Cys)] ({CH2CO}-GR[dF]RFC-NH2; thioether N-6) | 0.62 | 43% |  | 5.41 | 81% |  |
| C[C@H]1NC(=O)CSC[C@@H](C(N)=O)NC(=O)[C@H](Cc2ccccc2)NC(=O)[C@H](CCCNC(=N)N)NC(=O)[C@@H](Cc2ccccc2)NC(=O)[C@H](CCCNC(=N)N)NC1=O [CTX-1657, Thioether-cyclo(D-Ala-Arg-D-Phe-Arg-Phe-Cys)] ({CH2CO}-[dA]R[dF]RFC-NH2; thioether N-6) | 1.42 | 30% |  | 3.56 | 78% |  |
| CC1(C)NC(=O)CSC[C@@H](C(N)=O)NC(=O)[C@H](Cc2c[nH]c3ccccc23)NC(=O)[C@H](CCCNC(=N)N)NC(=O)[C@@H](Cc2ccccc2)NC(=O)[C@H](Cc2c[nH]cn2)NC1=O [CTX-1647, Thioether-cyclo(Aib-His-D-Phe-Arg-Trp-Cys)] | 3.66 | 102% |  | 30 | 109% |  |
| COc1ccc(C[C@H]2NC(=O)[C@H](CCCNC(N)=O)NC(=O)C(C)(C)NC(=O)[C@@H](NC(=O)[C@H](CCCNC(=N)N)NC(C)=O)CSSC[C@@H](C(N)=O)NC(=O)[C@H](Cc3ccccc3)NC(=O)[C@H](CCCNC(=N)N)NC2=O)cc1 [CTX-1299, Arg-cyclo(Cys-Aib-Cit-D-Tyr(4-OMe)-Arg-Phe-Cys)] (Ac-RC[Aib][Cit][dY](Me)RFC-NH2; disulfide 2-8) | 3.66 |  | > 10000 nM | >154 | 78% |  |
| CC(=O)N[C@H]1CSSC[C@@H](C(N)=O)NC(=O)[C@H](Cc2c[nH]c3ccccc23)NC(=O)[C@H](CCCNC(=N)N)NC(=O)[C@@H](Cc2ccccc2)NC(=O)[C@H](CCCNC(=N)N)NC(=O)CNC1=O [CTX-1629, cyclo(Cys-Gly-Arg-D-Phe-Arg-Trp-Cys)] (Ac-CGR[dF]RWC-NH2; disulfide 1-7) | 15 | 83% | 13 nM | 19 | 102% |  |
| CC(=O)N[C@@H](CCCNC(=N)N)C(=O)N[C@H]1CSSC[C@@H](C(N)=O)NC(=O)[C@H](Cc2c[nH]c3ccccc23)NC(=O)[C@H](CCCNC(=N)N)NC(=O)[C@@H](Cc2ccccc2)NC(=O)[C@H](CCCNC(N)=O)NC(=O)[C@H](C)NC1=O [CTX-1287, Arg-cyclo(Cys-Ala-Cit-D-Phe-Arg-Trp-Cys)] (Ac-RCA[Cit][dF]RWC-NH2; disulfide 2-8 (inferred)) | 281 | 43% |  | 66 | 94% |  |
| CC(=O)N[C@@H](CCCNC(=N)N)C(=O)N[C@H]1CSSC[C@@H](C(N)=O)NC(=O)[C@H](Cc2ccccc2)NC(=O)[C@H](CCCNC(=N)N)NC(=O)[C@@H](Cc2ccccc2)NC(=O)[C@H](CCCN)NC(=O)C(C)(C)NC1=O [CTX-1602, Arg-cyclo(Cys-Aib-Orn-D-Phe-Arg-Phe-Cys)] (Ac-RC[Aib][Orn][dF]RFC-NH2; disulfide 2-8) | 3.65 | 80% |  | 3.44 | 97% |  |
| CC1(C)NC(=O)CSC[C@@H](C(N)=O)NC(=O)[C@H](Cc2ccccc2)NC(=O)[C@H](CCCNC(=N)N)NC(=O)[C@@H](Cc2ccccc2)NC(=O)[C@H](Cc2c[nH]cn2)NC1=O [CTX-1650, Thioether-cyclo(Aib-His-D-Phe-Arg-Phe-Cys)] ({CH2CO}-[Aib]H[dF]RFC-NH2; thioether N-6) | 0.95 | 125% |  | 53 | 113% | 288 nM |
| CCCC[C@H](NC(=O)[C@H](CCCNC(=N)N)NC(C)=O)C(=O)N[C@H]1CSSC[C@@H](C(N)=O)NC(=O)[C@H](Cc2c[nH]c3ccccc23)NC(=O)[C@H](CCCNC(=N)N)NC(=O)[C@@H](Cc2ccccc2)NC(=O)[C@H](CCCN)NC1=O [CTX-1617, Arg-Nle-cyclo(Cys-Orn-D-Phe-Arg-Trp-Cys)] (Ac-R[Nle]C[Orn][dF]RWC-NH2; disulfide 3-8) | 1.75 | 102% |  | 11 | 102% |  |
| CC(=O)N[C@@H](CCCNC(=N)N)C(=O)N[C@H]1CSSC[C@@H](C(N)=O)NC(=O)[C@@H](Cc2c[nH]c3ccccc23)NC(=O)[C@H](CCCNC(=N)N)NC(=O)[C@@H](Cc2ccccc2)NC(=O)[C@H](CCCNC(N)=O)NC(=O)C(C)(C)NC1=O [CTX-1290, Arg-cyclo(Cys-Aib-Cit-D-Phe-Arg-D-Trp-Cys)] (Ac-RC[Aib][Cit][dF]R[dW]C-NH2; disulfide 2-8) | 10 | 20% | 1040 nM | 9.23 | 88% |  |
| CC(=O)N[C@H]1CSSC[C@@H](C(N)=O)NC(=O)[C@H](Cc2ccccc2)NC(=O)[C@H](CCCNC(=N)N)NC(=O)[C@@H](Cc2ccccc2)NC(=O)[C@H](Cc2c[nH]cn2)NC(=O)C(C)(C)NC1=O [CTX-1634, cyclo(Cys-Aib-His-D-Phe-Arg-Phe-Cys)] (Ac-C[Aib]H[dF]RFC-NH2; disulfide 1-7 (inferred)) | 4.02 | 94% |  | 6.68 | 107% |  |
